Measured values taken from patent publication US10689335B2, “Hydrogen sulfide precursors and conjugates thereof” (Georgia State University Research Foundation, Inc., priority 2015, dated 2020).

How the values were obtained:
[1] = tested on: PLE; assay: H2S concentration measurement by electrode probe ISO-H2S-2 in phosphate buffer with esterase; type: biochemical, pig; conditions: 200 μM precursor in PBS at 37° C. with 1 unit/mL PLE
Description: HPs (compounds HP-101, HP-102, HP-103, HP-104; final concentration=200 μM) were added to an incubation chamber (World Precision Instruments; WPI) containing phosphate buffer (10 mM; pH 7.4, 10 mL), and esterase (1 unit/mL) at 37° C. H2S formation was detected with the use of a 2-mm H2S-selective microelectrode (ISO-H2S-2; WPI) attached to an Apollo 1100 Free Radical Analyser (WPI) and shown as picoamps current generated. A standard curve (using Na2S.9H2O) was generated by following literature procedures, but using PBS containing esterase at 37° C. (FIG. 4).
H2S release from these precursors was studied (FIG. 4). […] For 200 μM of the precursor compound in PBS at 37° C. with 1 unit/mL PLE, the peak H2S concentration for the fastest one, HP-101, was about 95 μM at 15 min; and for the slowest one, HP-104, it was about 13 μM at 43 min.

[2] = tested on: esterases produced by the cells; assay: H2S release from HP-101 in cell culture media (ISO-H2S-2 electrode); conditions: 200 μM, 37° C.
Description: The in vitro release of H2S from HP-101 was studied under various conditions such as HP-101 (200 μM) in DMEM media (5 mL), cell+DMEM media without FBS, and cell+DMEM media with FBS.
HP-101 (200 μM) was added to an incubation chamber (World Precision Instruments; WPI) containing cell culture media (10 mL) at 37° C. H2S formation was detected with the use of an ISO-H2S-2 probe attached to an Apollo 1100 Free Radical Analyser and shown as picoamps current generated. A standard curve (using Na2S.9H2O) was also generated under the same conditions.

[3] = tested on: TNF-α secretion in RAW 264.7 cells; assay: Anti-inflammation study: TNF-α in LPS-stimulated RAW 264.7 cell culture supernatant (ELISA); type: cell-based; conditions: 1 hour co-treatment with 1 unit/mL esterase and 1 μg/mL LPS
Description: RAW 264.7 cells were seeded in the 48-well plate one day before the experiment. Lipopolysaccharide was added into the cell culture to initiate the inflammatory response in RAW 264.7 cells and to trigger the expression of cytokines. RAW 264.7 cells were co-treated with HPs (HP-101, HP-102, HP-103, HP-104) or iHPs, 1 unit/mL esterase and 1 μg/mL of LPS for 1 hour. Thereafter, the cell culture supernatant was collected. The concentrations of TNF-α in the cell culture supernatant was quantified by a commercial ELISA kit (ELISA Ready-SET-Go!®-eBioscience).

[4] = tested on: esterase; assay: Esterase triggered lactone formation monitored by LC-MS/MS; type: biochemical
Description: The release of hydrogen sulfide and its release rate were detected using LC-MS. A 200 μM HP 10 reaction mixture was treated with esterase for 25 min which led to formation of more than 180 μM of the lactone product as shown in FIG. 2.
HP-101 (final concentration: 200 μM) was added to PBS (10 mL) with 1 unit/mL esterase at 37° C. Reaction mixture (10 μL) was taken out every 3 minutes and added into a vial containing 990 μL methanol at −78° C. for 5 minutes. The mixture (14.5×1000 rp) was centrifuged, and the supernatant was used as the sample for LC-MS/MS analysis (Agilent 1100 LC, 6410 TripleQ MS/MS, Ion transition: 205.0/135.0, positive mode).

[5] = tested on: porcine liver esterase; assay: Esterase-induced H2S release detected with fluorescent probe WSP-5; type: biochemical; conditions: 200 μM, porcine liver esterase 4 u/mL in PBS at 37° C.
Description: The ability of esterases to release hydrogen sulfide, as shown in Scheme 17, was examined using a well-known hydrogen sulfide fluorescent probe WSP-5 (3-oxo-3H-spiro[isobenzofuran-1,9′-xanthene]-3′,6′-diyl bis(2-(pyridin-2-yldisulfanyl)benzoate) to detect its production in the hydrogen sulfide precursor (HP) reaction mixture. A 200 μM solution of HP 10 was treated with porcine liver esterase (Aldrich, E2884), 4 u/mL) in PBS at 37° C., then 5 μL reaction mixture was taken into 995 μL acetonitrile and detected using WSP-5. The results are shown in FIG. 1 which indicate that HP 10 releases H2S in phosphate buffer saline with 4 units of esterase.
Because of the high volatility of H2S, when the escape rate is greater than formation rate, the concentration decreases. The peak concentration of H2S also appeared within about 25 min.
HP-101 (final concentration: 200 μM) or other control compounds were added to PBS (10 mL) buffer containing esterase (1 unit/mL) at 37° C. After 15 minutes, aliquots of 100 μL samples were taken out and added into 100 μL PBS containing 50 μM WSP-5 and 100 μM CTAB in 96-well plate. After mixing and standing for 5 min at room temperature, the fluorescent intensities at 535 nm were recorded by a plate reader with excitation at 485 nm. (FIG. 1). […]

[6] = tested on: PLE; assay: Esterase-triggered release of H2S and parent drug from hybrid precursor (methylene blue method, HPLC); type: biochemical, pig; conditions: 200 μM in phosphate buffer pH 7.4, PLE 20 unit/mL, 37° C.
Description: To a 9.9 mL phosphate buffer (pH 7.4) solution was added 11.1 mg (200 unit) PLE, followed by the addition of 100 μL 20 mM HP-105 stock solution (final concentration: 200 μM). The resultant solution was sealed and stirred at 37° C. At every 30 min, 200 μL of reaction solution was taken into a 1.5 mL vial containing 200 μL zinc acetate (1%, w/v). Then the vial was centrifuged for 10 min. (14.5×1000 rp). The supernatant was removed and the precipitate was washed with PBS solution (100 μL×2). 600 μL of N,N-dimethyl-1,4-phenylenediaminesulfate (0.2% w/v in 20% H2SO4 solution) and 50 μL ferric chloride (10% w/v in 0.2% H2SO4 solution) was added to the vial. Then the vial was centrifuged for 5 min (14.5×1000 rp). The absorbance (at 740 nm) of the resulting solution was measured (after stirring for 10 min). H2S concentration was calculated based on a calibration curve of NaHS. (FIG. 7A).

Structure (SMILES): CC(=O)Oc1cc(C)cc(C)c1C(C)(C)CC(=O)[S-].[Na+] [HP-101, Sodium 3-(2-acetoxy-4,6-dimethylphenyl)-3-methylbutanethioate]
- peak H2S concentration [1]: about 95 μM
- time of peak H2S concentration [1]: 15 min
- H2S release in media collected after overnight of cell culture [2]: released at a moderate rate
- H2S release in DMEM alone ([2]; DMEM media without cells): did not release H2S

Structure (SMILES): C1COCCN1.COc1ccc(P(=S)(S)N2CCOCC2)cc1 (stereo not shown) [GYY 4137]
- effect on TNF-α secretion [3]: effectively inhibited TNF-α secretion

Structure (SMILES): CC(=O)Oc1cc(C)cc(C)c1C(C)(C)CC(=O)S [HP 10, 3-(2-acetoxy-4,6-dimethylphenyl)-3-methylbutanethioic S-acid]
- lactone product formed ([4]; 200 μM reaction mixture treated with esterase for 25 min): more than 180 μM
- H2S released ([4]; 200 μM, esterase, 25 min, inferred from lactone formed): more than 90%
- H2S release detected using WSP-5 [5]: releases H2S

Structure (SMILES): COc1ccc2cc([C@H](C)C(=O)Oc3cc(C)cc(C)c3C(C)(C)CC([O-])=S)ccc2c1.[Na+] [HP-105, Sodium (S)-3-(2-((2-(6-methoxynaphthalen-2-yl)propanoyl)oxy)-4,6-dimethylphenyl)-3-methylbutanethioate]
- generation of naproxen and H2S by treatment with an esterase [6]: could generate naproxen and H2S

Structure (SMILES): [Na+].[Na+].[S-2] [Na2S]
- effect on TNF-α secretion [3]: pro-inflammatory effect
